Patent publication US20160355530A1, “HEPATITIS C INHIBITORS AND USES THEREOF” (AbbVie Inc., priority 2010, published 2016)
Like-named read-outs stand apart in the source and are kept apart here.

Columns and labels:
[1] = system: HCV 1a-H77 subgenomic replicon; test: microbe, parasite or virus in culture; assay type: cell-based, HCV genotype 1a; conditions: Hepatitis C virus, stable replicon
[2] = system: HCV NS5B polymerase 1a-H77-C316Y; test: biochemical; design: species or system HCV genotype 1a; conditions: ratio of enzyme IC50s, 1a H77-C316Y / 1a H77
Protocol: (§1) Purified HCV NS5B polymerase enzymes were used for polymerase inhibition assays. All recombinant HCV polymerases contained the first 570 amino acids of the 591 amino acid native protein sequence and a six-histidine tag at the N-terminus or C-terminus to facilitate purification by affinity chromatography. The DNA nucleotide sequence for the HCV polymerase 1b BK strain was codon optimized for expression in E. coli. A synthetic gene was prepared from a series of overlapping oligonucleotides that were filled in using a DNA polymerase and amplified by PCR. The patient isolate HCV polymerases were cloned by RT-PCR methods using HCV RNA extracted from the serum of infected subjects obtained from ProMedDx and BioCollections (genotypes 2a, 2b, 3a, and 4a). Laboratory strains were cloned from plasmid DNA (1a-H77 or 1a-H77-C316Y) or from existing replicon cells (1b Rice). In all cases the amplified DNA was cloned into a protein expression vector (typically a pET vector from Novagen) and then multiple clones were sequenced to identify one whose NS5B sequence agreed with the population sequence. This sequence-confirmed clone was then transfected into E. coli for protein expression and purification. E. coli cultures were grown to a maximum optical density (OD) of 2-3 and then induced with 0.4 mM isopropyl beta-D-thiogalactopyranoside (IPTG) and grown for 20 hours at 20° C.
(§2) Proteins were purified using nickel affinity chromatography, and additional column steps were added including, ion exchange, size exclusion, hydrophobic ion, and poly-U affinity chromatography, as needed, depending on the sample being purified. The template RNA used in the polymerase enzymatic assay was a 2.1 kb construct that corresponds to the 3′-end of an HCV genotype 1b negative strand RNA.
(§3) The reaction was initiated by the addition of 20 μM CTP, 20 μM ATP, 0.284 μM (0.5 μCi) of 5,6-[^3H] UTP, 5 nM template RNA and 0.1 U/μL RNase inhibitor (RNasin, Promega), and allowed to proceed for three hours at 30° C. The final reaction volume was 50 μL. The reaction was terminated by the addition of 50 uL of 4 mM spermine in 10 mM Tris-HCl, pH 7.5, 1 mM EDTA. The quenched reaction was allowed to incubate for at least 15 minutes at room temperature, and then the precipitated RNA was captured by filtration through a glass fiber filter (GF/B, Millipore) in a 96 well format. The filter plate was washed five times with 200 μL of 2 mM spermine, 10 mM Tris-HCl, pH 8.0, 1 mM EDTA, and two times with ethanol. After drying thoroughly in air, 30 μL of Microscint-20 scintillation cocktail (Perkin Elmer) was added to each well, and the retained cpm were determined by scintillation counting. IC50 values were determined by nonlinear regression.
(§4) % Inhibition=100*[[I]/([I]+[IC50])] equation 1
(§5) V=kcat[S]/2(Km+[S])*(sqrt((IC50+I−E)̂2+(4*IC50*E))−(IC50+I−E)) equation 2

[3] = biological target: T1, HCV NS5B polymerase 1a-H77-C316Y (Hepatitis C virus genotype 1a, UniProt P27958, C2736Y); test: biochemical; design: species or system HCV genotype 1a
T1 construct: six-histidine tag; made in house; host or cells: E. coli
T1 sequence (P27958 2421-2990 C2736Y): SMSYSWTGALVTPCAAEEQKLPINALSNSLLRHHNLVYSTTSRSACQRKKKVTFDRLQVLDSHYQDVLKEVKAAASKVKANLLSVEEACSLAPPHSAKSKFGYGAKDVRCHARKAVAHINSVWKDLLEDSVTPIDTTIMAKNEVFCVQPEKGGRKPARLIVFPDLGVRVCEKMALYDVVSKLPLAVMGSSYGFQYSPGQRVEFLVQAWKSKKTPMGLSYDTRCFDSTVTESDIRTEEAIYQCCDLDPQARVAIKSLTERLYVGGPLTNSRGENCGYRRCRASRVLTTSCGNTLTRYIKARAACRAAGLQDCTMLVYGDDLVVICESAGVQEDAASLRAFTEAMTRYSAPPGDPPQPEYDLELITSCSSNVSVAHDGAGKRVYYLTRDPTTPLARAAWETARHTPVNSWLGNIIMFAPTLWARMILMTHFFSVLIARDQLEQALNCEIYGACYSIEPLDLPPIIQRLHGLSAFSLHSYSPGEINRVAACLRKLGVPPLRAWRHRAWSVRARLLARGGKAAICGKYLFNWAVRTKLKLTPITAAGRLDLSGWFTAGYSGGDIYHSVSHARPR
Protocol: as §1, §2, §3, §4, §5

[4] = biological target: T2, HCV NS5B polymerase 1a-H77 (Hepatitis C virus genotype 1a, UniProt P27958); test: biochemical; design: species or system HCV genotype 1a; conditions: enzyme, strain 1a H77; read-out: HCV Polymerase Strain 1a H77 IC50
T2 construct: six-histidine tag; made in house; host or cells: E. coli
T2 sequence (P27958 2421-2990): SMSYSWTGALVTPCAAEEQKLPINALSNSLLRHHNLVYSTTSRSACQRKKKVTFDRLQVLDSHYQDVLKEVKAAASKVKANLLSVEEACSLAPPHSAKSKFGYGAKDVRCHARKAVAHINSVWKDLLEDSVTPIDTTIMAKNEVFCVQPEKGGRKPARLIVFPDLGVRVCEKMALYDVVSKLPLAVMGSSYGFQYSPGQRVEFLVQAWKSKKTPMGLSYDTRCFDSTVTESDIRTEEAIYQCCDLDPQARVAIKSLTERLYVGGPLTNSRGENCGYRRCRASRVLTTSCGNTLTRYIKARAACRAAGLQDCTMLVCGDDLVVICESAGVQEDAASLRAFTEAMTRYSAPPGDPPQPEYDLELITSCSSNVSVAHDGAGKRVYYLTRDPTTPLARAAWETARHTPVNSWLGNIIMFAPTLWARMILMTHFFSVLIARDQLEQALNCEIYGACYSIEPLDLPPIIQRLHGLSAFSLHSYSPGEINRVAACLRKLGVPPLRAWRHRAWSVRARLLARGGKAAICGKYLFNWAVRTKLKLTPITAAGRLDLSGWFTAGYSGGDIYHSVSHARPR
Protocol: as §1, §2, §3, §4, §5

[5] = biological target: T3, HCV NS5B polymerase 1b BK strain (Hepatitis C virus genotype 1b, UniProt P26663); test: HCV NS5B polymerase enzymatic inhibition assay, strain 1b BK; assay type: biochemical; conditions: enzyme, strain 1b BK; read-out: HCV Polymerase Strain 1b BK IC50
T3 construct: six-histidine tag; made in house; host or cells: E. coli
T3 sequence (P26663 2420-2989): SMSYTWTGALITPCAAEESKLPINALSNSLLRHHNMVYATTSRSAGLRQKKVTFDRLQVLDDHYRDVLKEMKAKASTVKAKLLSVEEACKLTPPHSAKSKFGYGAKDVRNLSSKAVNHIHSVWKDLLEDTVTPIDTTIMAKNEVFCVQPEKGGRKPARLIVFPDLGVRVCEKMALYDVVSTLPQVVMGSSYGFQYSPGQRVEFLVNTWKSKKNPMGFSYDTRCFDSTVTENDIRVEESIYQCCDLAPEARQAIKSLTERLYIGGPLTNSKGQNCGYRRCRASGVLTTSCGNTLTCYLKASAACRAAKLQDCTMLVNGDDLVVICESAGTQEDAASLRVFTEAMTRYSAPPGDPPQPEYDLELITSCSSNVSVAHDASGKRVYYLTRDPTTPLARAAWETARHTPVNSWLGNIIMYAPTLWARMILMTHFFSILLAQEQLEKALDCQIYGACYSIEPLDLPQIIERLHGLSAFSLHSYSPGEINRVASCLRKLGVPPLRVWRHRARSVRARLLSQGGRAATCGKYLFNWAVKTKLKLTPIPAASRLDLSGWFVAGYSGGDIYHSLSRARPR
Protocol: as §1, §2, §3, §4, §5

[6] = system: HCV 1b-BB7 subgenomic replicon; test: microbe, parasite or virus in culture; assay type: cell-based, HCV genotype 1b; conditions: Hepatitis C virus, stable replicon
[7] = 5% FBS, absence of human plasma, read-out: Stable Replicon 1a H77 5% FBS EC50
[8] = strain 1a H77, 5% FBS + 40% human plasma, read-out: 1a H77 5% FBS + 40% Human Plasma EC50
[9] = strain 1a H77, 5% FBS, no human plasma, read-out: 1a H77 5% FBS EC50
[10] = strain 1a H77, 5% FBS, read-out: 1a H77 5% FBS EC50
[11] = strain 1b BB7, 5% FBS + 40% human plasma, read-out: 1b BB7 5% FBS + 40% Human Plasma EC50
[12] = strain 1b BB7, 5% FBS, no human plasma, read-out: 1b BB7 5% FBS EC50
[13] = strain 1b BB7, 5% FBS, read-out: 1b BB7 5% FBS EC50

Structure (SMILES) | EC50 [1, 7] [µM] | EC50 [1, 8] [µM] | EC50 [1, 9] [µM] | EC50 [1, 10] [µM] | C316Y/1a Fold Resistance [2] [fold] | IC50 [3] [µM] | IC50 [4] [µM] | IC50 [5] [µM] | EC50 [6, 11] [µM] | EC50 [6, 12] [µM] | EC50 [6, 13] [µM]
CS(=O)(=O)N(CCN)c1cc2oc(-c3ccc(F)cc3)c(-c3ncc[nH]3)c2cc1C1CC1 [Example 111, N-(2-aminoethyl)-N-[5-cyclopropyl-2-(4-fluorophenyl)-3-(1H-imidazol-2-yl)-1-benzofuran-6-yl]methanesulfonamide] | 0.152 | 1 | 0.152 | 0.152 | 201 | 2 | 0.0099 | 0.111 | 0.092 | 0.0404 | 0.0404
CC(C)CCCN(c1cc2oc(-c3ccc(F)cc3)c(-c3ncc[nH]3)c2cc1C1CC1)S(C)(=O)=O [Example 40, N-[5-cyclopropyl-2-(4-fluorophenyl)-3-(1H-imidazol-2-yl)-1-benzofuran-6-yl]-N-(4-methylpentyl)methanesulfonamide] | 0.023 | 0.525 | 0.023 | 0.023 | 11 | 0.07 | 0.0065 | 0.019 | 0.445 | 0.023 | 0.023
CS(=O)(=O)N(CCCC(=O)N1CCOCC1)c1cc2oc(-c3ccc(F)cc3)c(-c3ncc[nH]3)c2cc1C1CC1 [Example 103, N-[5-cyclopropyl-2-(4-fluorophenyl)-3-(1H-imidazol-2-yl)-1-benzofuran-6-yl]-N-[4-(morpholin-4-yl)-4-oxobutyl]methanesulfonamide] | 0.0446 | 0.563 | 0.0446 | 0.0446 | 50 | 0.4 | 0.0079 | 0.055 | 0.114 | 0.0139 | 0.0139
CS(=O)(=O)N(CCOc1ccccc1)c1cc2oc(-c3ccc(F)cc3)c(-c3ncc[nH]3)c2cc1C1CC1 [Example 43, N-[5-cyclopropyl-2-(4-fluorophenyl)-3-(1H-imidazol-2-yl)-1-benzofuran-6-yl]-N-(2-phenoxyethyl)methanesulfonamide] | 0.269 | 5.21 | 0.269 | 0.269 | 154 | 1 | 0.0065 | 0.025 | 0.616 | 0.08 | 0.08
COc1ccc(CN(c2cc3oc(-c4ccc(F)cc4)c(-c4ncc[nH]4)c3cc2OC(C)C)S(C)(=O)=O)cc1 [Example 170, N-[2-(4-fluorophenyl)-3-(1H-imidazol-2-yl)-5-isopropoxy-1-benzofuran-6-yl]-N-(4-methoxybenzyl)methanesulfonamide] | 0.54 | – | 0.54 | 0.54 | 556 | 20 | 0.036 | 0.338 | – | 0.121 | 0.121
CS(=O)(=O)N(Cc1cnc(-c2c[nH]c(=O)[nH]c2=O)s1)c1ccc2c(-c3ncc[nH]3)c(-c3ccccc3)oc2c1 [Example 29, N-{[2-(2,4-dioxo-1,2,3,4-tetrahydropyrimidin-5-yl)-1,3-thiazol-5-yl]methyl}-N-[3-(1H-imidazol-2-yl)-2-phenyl-1-benzofuran-6-yl]methanesulfonamide] | 1 | 10 | 1 | 1 | 2 | 0.007 | 0.003 | 0.009 | 9.83 | 0.207 | 0.207
CC(C)(O)C(=O)CCN(c1cc2oc(-c3ccc(F)cc3)c(-c3ncc[nH]3)c2cc1C1CC1)S(C)(=O)=O [Example 106, N-[5-cyclopropyl-2-(4-fluorophenyl)-3-(1H-imidazol-2-yl)-1-benzofuran-6-yl]-N-(4-hydroxy-4-methyl-3-oxopentyl)methanesulfonamide] | 0.0544 | 0.915 | 0.0544 | 0.0544 | 14 | 0.101 | 0.0073 | 0.019 | 0.221 | 0.0273 | 0.0273
CS(=O)(=O)N(CCc1ccccc1)c1cc2oc(-c3ccc(F)cc3)c(-c3ncc[nH]3)c2cc1C1CC1 [Example 35, N-[5-cyclopropyl-2-(4-fluorophenyl)-3-(1H-imidazol-2-yl)-1-benzofuran-6-yl]-N-(2-phenylethyl)methanesulfonamide] | 0.102 | 1.58 | 0.102 | 0.102 | 23 | 0.113 | 0.0049 | 0.007 | 1.13 | 0.051 | 0.051
COc1ccc(CN(c2cc3oc(-c4ccc(F)cc4)c(-c4ncc(C)[nH]4)c3cc2C2CC2)S(C)(=O)=O)cc1 [Example 188, N-[5-cyclopropyl-2-(4-fluorophenyl)-3-(5-methyl-1H-imidazol-2-yl)-1-benzofuran-6-yl]-N-(4-methoxybenzyl)methanesulfonamide] | 0.399 | 8.46 | 0.399 | 0.399 | 15 | 0.224 | 0.0154 | 0.055 | 2.03 | 0.208 | 0.208
CS(=O)(=O)N(CC1CCNC1)c1cc2oc(-c3ccc(F)cc3)c(-c3ncc[nH]3)c2cc1C1CC1 (centres unmarked) [Example 51, N-[5-cyclopropyl-2-(4-fluorophenyl)-3-(1H-imidazol-2-yl)-1-benzofuran-6-yl]-N-(pyrrolidin-3-ylmethyl)methanesulfonamide] | 1 | 4.59 | 1 | 1 | 219 | 2.05 | 0.0094 | 0.074 | 0.835 | 0.194 | 0.194
CC(C)(O)C(O)CN(c1cc2oc(-c3ccc(F)cc3)c(-c3ncc[nH]3)c2cc1C1CC1)S(C)(=O)=O (centres unmarked) [Example 94, N-[5-cyclopropyl-2-(4-fluorophenyl)-3-(1H-imidazol-2-yl)-1-benzofuran-6-yl]-N-(2,3-dihydroxy-3-methylbutyl)methanesulfonamide] | 0.0602 | 0.599 | 0.0602 | 0.0602 | 107 | 1 | 0.0094 | 0.028 | 0.36 | 0.0763 | 0.0763
